According to patent publication US9062056B2, “Aza-benzimidazolone Chymase inhibitors” (Boehringer Ingelheim International GmbH, priority 2008, dated 2015):

target: T1, Chymase (Homo sapiens, UniProt P23946); experiment: In vitro assay for inhibition of Chymase (rhodamine 110 peptide substrate, fluorescence); format: biochemical; settings: 500 pM chymase, 100 nM substrate, 100 μM TCEP, 1% DMSO, 28° C., 1 hour
T1 sequence (P23946 22-247): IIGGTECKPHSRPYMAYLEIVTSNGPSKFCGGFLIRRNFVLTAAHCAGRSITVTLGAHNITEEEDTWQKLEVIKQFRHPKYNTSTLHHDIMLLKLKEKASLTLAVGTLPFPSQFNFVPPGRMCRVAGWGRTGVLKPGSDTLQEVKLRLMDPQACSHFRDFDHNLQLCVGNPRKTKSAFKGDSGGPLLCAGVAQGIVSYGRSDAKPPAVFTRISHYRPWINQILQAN
Procedure: IN VITRO ASSAY FOR INHIBITION OF CHYMASE
Chymase assays were performed in a total volume of 15 μL in Corning black opaque 384-well microtiter plates with a non-binding surface (Corning, N.Y.). The assay buffer was comprised of 20 mM Tris HCl pH 8.0, 50 mM NaCl, 0.01% CHAPS. The test compounds were serially diluted 3-fold with neat DMSO in a 96-well polypropylene plate from a 10 mM DMSO stock to give the 10 point dose response curve. 3 μL of the resulting DMSO solution were transferred to a 384-well polypropylene plate in duplicate, and 37 μL of assay buffer was added. Chymase was added to the assay plate in 3 uL of assay buffer followed by 2 uL of the appropriate compound dilution using a PlateMate Plus (Matrix Technologies Corp., Hudson, N.H.). The reaction was initiated by the addition of 10 uL rhodamine 110, bis-(succinoyl-L-alanyl-L-alanyl-L-prolyl-L-phenylalanylamide) (American Peptides, Sunnyvale, Calif.) in assay buffer containing 150 μM tris(2-carboxyethyl)phosphine (TCEP, Pierce Chemical, Rockford, Ill.) using a Multidrop (Thermo Electron Corp., Waltham, Mass.). Final assay concentrations were 500 pM chymase, 100 nM substrate, 100 μM TCEP, and 1% DMSO. The plates were incubated at 28° C. and 80% humidity for 1 hour, at which time the fluorescence was read on a Viewlux 1430 Microplate Imager (Perkin Elmer Life Sciences, Boston, Mass.) with 485 nm excitation, 530 nm emission, and a fluorescein dichroic mirror. The percentage of control values were calculated relative to assay blanks containing complete reaction minus chymase and a 100% control containing assay buffer with 1% DMSO in place of compound. IC50 values were obtained by fitting the data using XLFit4 (IDBS Software).

IC50 [nM] | Structure (SMILES)
0.245 | Cc1cccc2c1c(Cn1c(=O)n([C@H](CC(=O)O)c3ccc(F)cc3)c3nc(C#N)ccc31)cn2C [(R)-3-[5-Cyano-1-(1,4-dimethyl-1H-indol-3-ylmethyl)-2-oxo-1,2-dihydro-imidazo[4,5-b]pyridin-3-yl]-3-(4-fluoro-phenyl)-propionic acid]
1.5 | Cc1cccc2c1c(Cn1c(=O)n([C@H](CC(=O)O)c3ccccc3)c3nc(C#N)ccc31)cn2C [(R)-3-[5-Cyano-1-(1,4-dimethyl-1H-indol-3-ylmethyl)-2-oxo-1,2-dihydro-imidazo[4,5-b]pyridin-3-yl]-3-phenyl-propionic acid]
0.23 | Cc1cc(C)c2c(Cn3c(=O)n([C@H](CC(=O)O)c4ccc(F)cc4)c4nc(C#N)ccc43)cn(C)c2c1 [(R)-3-[5-Cyano-2-oxo-1-(1,4,6-trimethyl-1H-indol-3-ylmethyl)-1,2-dihydro-imidazo[4,5-b]pyridin-3-yl]-3-(4-fluoro-phenyl)-propionic acid]
0.6 | Cc1cc(C)c2c(Cn3c(=O)n([C@H](CC(=O)O)c4ccccc4)c4nc(C#N)ccc43)cn(C)c2c1 [(R)-3-[5-Cyano-2-oxo-1-(1,4,6-trimethyl-1H-indol-3-ylmethyl)-1,2-dihydro-imidazo[4,5-b]pyridin-3-yl]-3-phenyl-propionic acid]
0.605 | COc1ccc2c(n1)n([C@H](CC(=O)O)c1ccccc1)c(=O)n2Cc1cn(C)c2cc(C)cc(C)c12 [(R)-3-[5-Methoxy-2-oxo-1-(1,4,6-trimethyl-1H-indol-3-ylmethyl)-1,2-dihydro-imidazo[4,5-b]pyridin-3-yl]-3-phenyl-propionic acid]
12.6 | Cc1cccc2c1c(Cn1c(=O)n([C@H](CC(=O)O)c3ccccc3)c3nc(C(C)C)ncc31)cn2C [(R)-3-[7-(1,4-Dimethyl-1H-indol-3-ylmethyl)-2-isopropyl-8-oxo-7,8-dihydro-purin-9-yl]-3-phenyl-propionic acid]
4.93 | CCC[C@@H](CC(=O)O)n1c(=O)n(Cc2cn(C)c3cccc(C)c23)c2cccnc21 [(S)-3-[1-(1,4-Dimethyl-1H-indol-3-ylmethyl)-2-oxo-1,2-dihydro-imidazo[4,5-b]pyridin-3-yl]-hexanoic acid]
4.48 | CCC[C@@H](CC(=O)O)n1c(=O)n(Cc2cn(C)c3cccc(C)c23)c2ccc(C)nc21 [(S)-3-[1-(1,4-Dimethyl-1H-indol-3-ylmethyl)-5-methyl-2-oxo-1,2-dihydro-imidazo[4,5-b]pyridin-3-yl]-hexanoic acid]
3.46 | CCC[C@@H](CC(=O)O)n1c(=O)n(Cc2cn(C)c3cccc(C)c23)c2cc(C)cnc21 [(S)-3-[1-(1,4-Dimethyl-1H-indol-3-ylmethyl)-6-methyl-2-oxo-1,2-dihydro-imidazo[4,5-b]pyridin-3-yl]-hexanoic acid]
3.4 | CCC[C@@H](CC(=O)O)n1c(=O)n(Cc2nsc3cc(C)cc(C)c23)c2ccc(C)nc21 [(S)-3-[1-(4,6-Dimethyl-1,2-benzisothiazol-3-ylmethyl)-5-methyl-2-oxo-1,2-dihydro-imidazo[4,5-b]pyridin-3-yl]-hexanoic acid]
8.86 | CCC[C@@H](CC(=O)O)n1c(=O)n(Cc2cn(C)c3cccc(C)c23)c2ncccc21 [(S)-3-[3-(1,4-Dimethyl-1H-indol-3-ylmethyl)-2-oxo-2,3-dihydro-imidazo[4,5-b]pyridin-1-yl]-hexanoic acid]
18.9 | CCC[C@@H](CC(=O)O)n1c(=O)n(Cc2cn(C)c3cccc(C)c23)c2cnccc21 [(S)-3-[3-(1,4-Dimethyl-1H-indol-3-ylmethyl)-2-oxo-2,3-dihydro-imidazo[4,5-c]pyridin-1-yl]-hexanoic acid]
0.81 | CCC[C@@H](CC(=O)O)n1c(=O)n(Cc2cn(C)c3cc(C)cc(C)c23)c2ccc(C)nc21 [(S)-3-[5-Methyl-2-oxo-1-(1,4,6-trimethyl-1H-indol-3-ylmethyl)-1,2-dihydro-imidazo[4,5-b]pyridin-3-yl]-hexanoic acid]
7.48 | CCC[C@@H](CC(=O)NS(=O)(=O)CC)n1c(=O)n(Cc2cn(C)c3cccc(C)c23)c2cccnc21 [Ethanesulfonic acid {(S)-3-[1-(1,4-dimethyl-1H-indol-3-ylmethyl)-2-oxo-1,2-dihydro-imidazo[4,5-b]pyridin-3-yl]-hexanoyl}-amide]
11.8 | CCC[C@@H](CC(=O)NS(C)(=O)=O)n1c(=O)n(Cc2cn(C)c3cccc(C)c23)c2cccnc21 [N-{(S)-3-[1-(1,4-Dimethyl-1H-indol-3-ylmethyl)-2-oxo-1,2-dihydro-imidazo[4,5-b]pyridin-3-yl]-hexanoyl}-methanesulfonamide]
